Holding throughout (type): in vivo
The test system of one assay is Ixodes ricinus. As to the kind of experiment: whole plant or invertebrate. Conditions: for pest or weed control at 1 µg/cm2, 1 µg/cm2 / pest or weed control at 5 µg/cm2, 5 µg/cm2 / pest or weed control at 25 µg/cm2, 25 µg/cm2 / pest or weed control at 0.04 µg/cm2, 0.04 µg/cm2: Ixodes ricinus, read-out: mean percentage of ticks affected; for pest or weed control at 0.04 µg/cm2, 0.04 µg/cm2: 0.04 µg/cm^2, diluted in ethanol.

The subject of assay [1] is Aedes aegypti. As to the kind of experiment: in vitro Warm Body assay, substance introduced in the cage air by forced evaporation (spatial repellence). The procedure: (§1) The controlling effect, repellence & spatial repellence, according to the present invention is determined by testing the Warm Body assay against the yellow fever mosquito, Aedes aegypti Rockefeller strain. […] Observations of controlling efficacy were made on host-seeking females of uniform age, 5 to 10 days old selected as mentioned in the publication mentioned hereinabove. Tested hungry females had access to 10% sugar solution but were not blood-fed. Further information is provided in the accompanying examples.
(§2) The published protocol has been adapted in not manually counting the landing mosquitoes but automatically using an automatic counting software, the switch from Anopheles gambiae to A. aegypti led to a decrease of mosquitoes’ number placed in the tested cage due to the size difference (i.e. 30 mosquitoes instead of 50) and to an increase of lighting as A. aegypti is a diurnal mosquitoes (i.e. 150 lux instead of 4 lux). Further information is provided in the accompanying examples.,
(§3) The controlling effect of the compositions according to the present invention was assessed using an adapted Warm Body assay as defined in Kröber T, Kessler S, Frei J, Bourquin M, Guerin PM. 2010. An in vitro assay for testing mosquito controlling compounds employing a warm body and carbon dioxide as a behavioral activator. J Am Mosq Control Assoc. 26:381-386. In this in-vitro assay the number of mosquito landing on a warm body, simulating an attractive host treated with the tested stimuli, was measured in order to assess the repellence effect.
(§4) The published protocol has been adapted in not manually counting the landing mosquitoes but automatically using an automatic counting software, the switch from Anopheles gambiae to Aedes aegypti led to a decrease of mosquitoes’ number placed in the tested cage due to the size difference (i.e. 30 mosquitoes instead of 50) and to an increase of lighting as A. aegypti is a diurnal mosquitoes (i.e. 150 lux instead of 4 lux).
(§5) In addition, since the inventors were interested by assessing spatial repellence added or not to a deterrent effect, the substance was applied using two different technics. Whether, as in Kröber et al. (2010), both deterrent and repellent effect were investigated (i.e. similar effect than most body care applications such as lotion) and the substances was applied on a sandblasted glass Petri dish placed on top of the warm body. Whether only the spatial repellence was investigated (i.e. similar effect than most home care applications such as liquid electric dispenser) and the substance was introduced in the cage space thanks to a forced evaporation system as described in Chappuis C J-F, Niclass Y, Vuilleumier C, Starkenmann C. 2015. Quantitative Headspace Analysis of Selected Odorants from Latrines in Africa and India. Environ. Sci. Technol. 49:6134-6140.
(§6) As stated in Kröber et al. (2010), selected 10-12 days old hungry females, that had ad libitum access to 10% sugar solution but were not blood-fed, were selected for the assay.
The forced evaporation system allows to fill the volume of the cage with stimuli tested, (2-methyl-4-oxo-3-prop-2-ynylcyclopent-2-en-1-yl) 2,2-dimethyl-3-(2-methylprop-1-enyl)cyclopropane-1-carboxylate (prallethrin) and N,N-diethyl-3-methylbenzamide (DEET) being used as benchmarks. In order to limit potential dead volumes in the cage, five flushes of the cage were made before starting the 2 minutes test during which the number of mosquito landings was counted.

The test system of assay [2] is Aedes aegypti. The experiment in a line: in vitro Warm Body assay, substance applied on glass Petri dish on top of the warm body (deterrence and repellence). As for the experimental part: as §1, §2, §3, §4, §5, §6
On the sandblasted glass Petri dish covering the warm body (28.3 cm^2), 100 µL of the substances diluted at different concentrations in ethanol was applied. The number of mosquito landing on the warm body was counted for each stimuli, N,N-diethyl-3-methylbenzamide (DEET) and ethyl 3-[acetyl(butyl)amino]propanoate (IR3535) being used as benchmarks and pure ethanol as control.

The mark [3] stands for this setting: 1 µg/cm^2, diluted in ethanol, ethanol control 1.0±1.2%.
Where [4] appears, read: 5 µg/cm^2, diluted in ethanol, ethanol control 1.0±1.2%.
Setting [5] is: 25 µg/cm^2, diluted in ethanol, ethanol control 1.0±1.2%.
Setting [6] is: 0.04% in ethanol, ethanol control 59.3±6.9 landings.
The mark [7] stands for this setting: 1% in ethanol, ethanol control 59.3±6.9 landings.
Setting [8] is: […] in ethanol, ethanol control 59.3±6.9 landings.
The mark [9] stands for this setting: 1 µg/cm^2, diluted in ethanol, ethanol control 0.6±0.5%.
Setting [10] is: 25 µg/cm^2, diluted in ethanol, ethanol control 0.6±0.5%.
The mark [11] stands for this setting: 0.04% in ethanol, ethanol control 67.0±8.8 landings.
[12] abbreviates: 1% in ethanol, ethanol control 67.0±8.8 landings.
Where [13] appears, read: […] in ethanol, ethanol control 67.0±8.8 landings.

Structures are written as SMILES. Read-outs that look alike come from different tables or passages of the source.

This is an account of results in patent US20230247992A1, “ARTHROPOD CONTROL COMPOSITION” (Firmenich SA, priority 2020, published 2023).

For the compound `CCCCCC1CCC(=O)O1` (centres unmarked) [5-pentyloxolan-2-one], the pest or weed control at 1 µg/cm2, 1 µg/cm2 with Ixodes ricinus (setting [3]) was determined as 31%. In addition, the pest or weed control at 5 µg/cm2, 5 µg/cm2 with Ixodes ricinus (setting [4]) stood at 83%. Besides, in the assay on Ixodes ricinus (setting [5]), the pest or weed control at 25 µg/cm2, 25 µg/cm2 was determined as 100%. Moreover, the “tick response compared with the benchmark IR3535” value in the assay with Ixodes ricinus (concentrations tested) was “response similar to the benchmark IR3535”. For the same compound, the “number of mosquitoes landing within 2 minutes on the warm body, air in the cage saturated with stimulus” value in the assay on Aedes aegypti [1] (0.0017 µg/L air, without substance 54.7±3.2) came to 14.7; in the assay with Aedes aegypti [1] (0.017 µg/L air, without substance 54.7±3.2), 23.0; in the assay on Aedes aegypti [1] (0.17 µg/L air, without substance 54.7±3.2) it was 15.3; in the assay on Aedes aegypti [1] (1.7 µg/L air, without substance 54.7±3.2) it was 7.7; with Aedes aegypti [1] (17 µg/L air, without substance 54.7±3.2), 2.0. The “number of mosquitoes landing within 2 minutes on the warm body” value with Aedes aegypti [2] (setting [6]) was 16.0; in the assay on Aedes aegypti [2] (setting [7]) it was 1.0; in the assay with Aedes aegypti [2] (setting [8]), 76.0.

Regarding `O=C1CCC2CCCCC2O1` (centres unmarked) [3,4,4a,5,6,7,8,8a-octahydrochromen-2-one], the pest or weed control at 0.04 µg/cm2, 0.04 µg/cm2 in the assay on Ixodes ricinus (ethanol control 0.6±0.5%) was 33%. For the same compound, the pest or weed control at 1 µg/cm2, 1 µg/cm2 in the assay with Ixodes ricinus (setting [9]) is 17%. In addition, the pest or weed control at 25 µg/cm2, 25 µg/cm2 in the assay on Ixodes ricinus (setting [10]) turned out to be 92%. Moreover, the “number of mosquitoes landing within 2 minutes on the warm body” value with Aedes aegypti [2] (setting [11]) worked out at 7.0; in the assay on Aedes aegypti [2] (setting [12]) it was 0.0; in the assay with Aedes aegypti [2] (setting [13]), 45.0.

Take `CCCCN(CCC(=O)OCC)C(C)=O` [ethyl 3-[acetyl(butyl)amino]propanoate, reference compound]: the “mean percentage of ticks affected” value is given as 33% with Ixodes ricinus (setting [9]); 33% in the assay on Ixodes ricinus (1 µg/cm^2, diluted in ethanol, ethanol control 4.3±2.1%); 67% with Ixodes ricinus (5 µg/cm^2, diluted in ethanol, ethanol control 0.6±0.5%); 67% in the assay with Ixodes ricinus (5 µg/cm^2, diluted in ethanol, ethanol control 4.3±2.1%); 91% in the assay on Ixodes ricinus (setting [10]); 91% in the assay on Ixodes ricinus (25 µg/cm^2, diluted in ethanol, ethanol control 4.3±2.1%). Besides, in the assay with Ixodes ricinus (ethanol control 0.6±0.5%), the pest or weed control at 0.04 µg/cm2, 0.04 µg/cm2 is 13%. The pest or weed control at 1 µg/cm2, 1 µg/cm2 in the assay on Ixodes ricinus (setting [3]) stood at 33%. Also, the pest or weed control at 5 µg/cm2, 5 µg/cm2 in the assay with Ixodes ricinus (setting [4]) turned out to be 67%. For the same compound, in the assay on Ixodes ricinus (setting [5]), the pest or weed control at 25 µg/cm2, 25 µg/cm2 came to 91%. The “number of mosquitoes landing within 2 minutes on the warm body” value came to 20.7 in the assay with Aedes aegypti [2] (setting [6]); 20.7 with Aedes aegypti [2] (setting [11]); 20.7 with Aedes aegypti [2] (0.04% in ethanol, ethanol control 67.1±9.1 landings); 7.7 with Aedes aegypti [2] (setting [7]); 7.7 in the assay on Aedes aegypti [2] (setting [12]); 7.7 in the assay with Aedes aegypti [2] (1% in ethanol, ethanol control 67.1±9.1 landings). Further, the “number of mosquitoes landing within 2 minutes on the warm body” value was 70.0 with Aedes aegypti [2] (setting [8]); 70.0 with Aedes aegypti [2] (setting [13]); 70.0 in the assay with Aedes aegypti [2] ([…] in ethanol, ethanol control 67.1±9.1 landings).

For the compound `COc1ccc(COC(C)=O)cc1` [(4-methoxyphenyl)methyl acetate], the “number of mosquitoes landing within 2 minutes on the warm body, air in the cage saturated with stimulus” value was found to be 18.0 in the assay on Aedes aegypti [1] (0.0017 µg/L air, without substance 54.1±4.9); 26.5 with Aedes aegypti [1] (0.017 µg/L air, without substance 54.1±4.9); 34.5 with Aedes aegypti [1] (0.17 µg/L air, without substance 54.1±4.9); 28.0 in the assay with Aedes aegypti [1] (1.7 µg/L air, without substance 54.1±4.9). For the same compound, the “number of mosquitoes landing within 2 minutes on the warm body” value came to 27.0 in the assay on Aedes aegypti [2] (setting [11]), 9.0 in the assay on Aedes aegypti [2] (setting [12]) and 59.0 with Aedes aegypti [2] (setting [13]).
